Our source for the binding values is publication PMC5494547 (2015).

Test [1] relates to MBA1 (DNA, aptamer) TACACTGGGGAGTATTGCGGAGGAAGTGTA
Kind of test: circular dichroism. The conditions noted are these: 1 µM MBA1, 50 mM ATP; quadruplex bands at 265 and 295 nm.

In test [2] the test system is MBA3 (DNA, aptamer) GCGCGCGGGGAGTATTGCGGAGGAGCGCGC
Kind of test: circular dichroism. The conditions noted are these: CD unchanged by PPFP-Br; tighter folded G-quadruplex than ATP/MBA1. Background: Circular dichroism is the unequal absorption of left and right circularly polarised light.

SMILES strings stand for the structures.

For the compound `Nc1ncnc2c1ncn2[C@@H]1O[C@H](COP(=O)(O)OP(=O)(O)OP(=O)(O)O)[C@@H](O)[C@H]1O`, the binding result in test [1] and in test [2] was “yes” each time.
